Tested on: A549
Experiment: Cytostatic cell culture assay (GI50), SRB
Assay type: cell-based
Conditions: Homo sapiens, A549, 120 h; 5 days incubation
Excerpt: (§1) The assay is based on quantification of cell counts by a colorimetric detection of the cell associated proteins. The assay relies on the ability of sulforhodamine B (SRB) to bind to protein components of cells that have been fixed to tissue-culture plates by trichloroacetic acid (TCA). SRB is a bright-pink aminoxanthene dye with two sulfonic groups that bind to basic amino-acid residues under mild acidic conditions, and dissociate under basic conditions. As the binding of SRB is stoichiometric, the amount of dye extracted from stained cells is directly proportional to the cell mass.
(§2) Cell lines: All cell lines were obtained from ATCC (Manassas, Va.). Cultivation media containing Glutamax, and trypsin were purchased from Invitrogen (Carlsbad, Calif.). Doxorubicin, Clofarabine, TCA and SRB were from Sigma-Aldrich (St. Louis, Mo.). Gemcitabine was obtained from Moravek Biochemicals (Brea, Calif.)
(§3) • 1. Trypsinize the sub-confluent cells, count them, and adjust the cell concentrations according to the cell counts listed in Table 1. • 2. Distribute the cells into the 96-well plates in 150 μL of media. Incubate the plates overnight in humidified CO2 incubator at 37° C. • 3. Fix one plate of each cell line with TCA. Discard the cultivation media from the plates by flicking them gently and add 100 ul cold 10% (vol/vol) TCA to each well. Incubate the plates at 4 degree refrigerator for 1 hour. Discard TCA from the plates by flicking them gently. Rinse plates four times in a washing basin containing tap water. Store the plates at room temperature. These plates represent cell counts on day zero. • 4. Prepare a set of medium solutions containing various concentrations of tested compounds by making 5-fold serial dilutions in 96-well plate. Add 50 μL of the diluted compounds per well. Include controls with untreated cells and cells treated with doxorubicin, clofarabine and gemcitabine. • 5. Incubate the plates for 5 days at 37° C. • 6. Fix the plates with TCA. Discard the cultivation media from the plates by flicking them gently and add 100 ul cold 10% (vol/vol) TCA to each well. Incubate the plates at 4 degree refrigerator for 1 hour. Discard TCA from the plates by flicking them gently. Rinse plates four times in a washing basin containing tap water. • 7. Remove excess water by tapping the plates face down, gently on a paper towel. Allow the plates to air-dry at room temperature. • 8. Add 100 ul of 0.057% SRB solution in 1% (vol/vol) acetic acid to each well of the plates fixed with TCA on day zero and five. Leave at room temperature for 30 minutes. • 9. Flick the plates gently to discard SRB. Rinse the plates four times with 1% (vol/vol) Acetic Acid. • 10. Store the plates at 37 degree incubator to facilitate faster drying. • 11. Once the plates are completely dry, add 200 ul of 10 mM Tris base solution (pH 10.5) to each well. Leave at room temperature for 30 minutes for SRB to solubilize. • 12. Measure the OD at 500 nm in a microplate reader • 13. Calculate the percentage of cell-growth inhibition using the next formula: % of control cell growth=100×(ODsample−mean ODday0)/(ODneg control−mean ODday0)
(§4) For GI50 determination, plot a dose-response curve between the compound concentration and percent of growth inhibition. GI50 values can be derived by fitting dose-response curves using sigmoidal dose response equation.

GI50 | SMILES
4090 nM | CCOC(=O)[C@H](C)NP(=O)(COCCn1cnc2c(OCCOC)nc(N)nc21)N[C@@H](C)C(=O)OCC [Example 48]
4 nM | CCCOc1nc(N)nc2c1ncn2CCOCP(=O)(N[C@@H](Cc1ccccc1)C(=O)OCC(C)C)N[C@@H](Cc1ccccc1)C(=O)OCC(C)C [Example 19]
2840 nM | CCOc1nc(N)nc2c1ncn2CCOCP(=O)(O)O [Example 5, [2-(2-Amino-6-ethoxy-purin-9-yl)-ethoxymethyl]-phosphonic acid]
11000 nM | COC(=O)[C@@H](C)NP(=O)(COCCn1cnc2c(OC)nc(N)nc21)N[C@H](C)C(=O)OC [Example 32]
2820 nM | Nc1nc(OC2CC2)c2ncn(CCOCP(=O)(O)O)c2n1 [Example 8, [2-(2-Amino-6-cyclopropoxy-purin-9-yl)-ethoxymethyl]-phosphonic acid]

SMILES | GI50
CCCCOC(=O)[C@H](C)NP(=O)(COCCn1cnc2c(OC3CC3)nc(N)nc21)Oc1ccccc1 (stereo partly drawn) [Example 58] | 204 nM

Tested on: BT-549
Experiment: Cytostatic cell culture assay (GI50), SRB
Assay type: cell-based
Conditions: Homo sapiens, BT-549, 120 h; 5 days incubation
Excerpt: as §1, §2, §3, §4

GI50 | SMILES
1710 nM | CCOC(=O)[C@H](C)NP(=O)(COCCn1cnc2c(OCCOC)nc(N)nc21)N[C@@H](C)C(=O)OCC [Example 48]
53 nM | CCCOc1nc(N)nc2c1ncn2CCOCP(=O)(N[C@@H](Cc1ccccc1)C(=O)OCC(C)C)N[C@@H](Cc1ccccc1)C(=O)OCC(C)C [Example 19]
2000 nM | CCOc1nc(N)nc2c1ncn2CCOCP(=O)(O)O [Example 5, [2-(2-Amino-6-ethoxy-purin-9-yl)-ethoxymethyl]-phosphonic acid]
> 10000 nM | COC(=O)[C@@H](C)NP(=O)(COCCn1cnc2c(OC)nc(N)nc21)N[C@H](C)C(=O)OC [Example 32]
2710 nM | Nc1nc(OC2CC2)c2ncn(CCOCP(=O)(O)O)c2n1 [Example 8, [2-(2-Amino-6-cyclopropoxy-purin-9-yl)-ethoxymethyl]-phosphonic acid]

SMILES | GI50
CCCCOC(=O)[C@H](C)NP(=O)(COCCn1cnc2c(OC3CC3)nc(N)nc21)Oc1ccccc1 (stereo partly drawn) [Example 58] | 585 nM

Tested on: Du-145
Experiment: Cytostatic cell culture assay (GI50), SRB
Assay type: cell-based
Conditions: Homo sapiens, DU-145, 120 h; 5 days incubation
Excerpt: as §1, §2, §3, §4

GI50 | SMILES
108 nM | CCOC(=O)[C@H](C)NP(=O)(COCCn1cnc2c(OCCOC)nc(N)nc21)N[C@@H](C)C(=O)OCC [Example 48]
1 nM | CCCOc1nc(N)nc2c1ncn2CCOCP(=O)(N[C@@H](Cc1ccccc1)C(=O)OCC(C)C)N[C@@H](Cc1ccccc1)C(=O)OCC(C)C [Example 19]
223 nM | CCOc1nc(N)nc2c1ncn2CCOCP(=O)(O)O [Example 5, [2-(2-Amino-6-ethoxy-purin-9-yl)-ethoxymethyl]-phosphonic acid]
1490 nM | COC(=O)[C@@H](C)NP(=O)(COCCn1cnc2c(OC)nc(N)nc21)N[C@H](C)C(=O)OC [Example 32]
536 nM | Nc1nc(OC2CC2)c2ncn(CCOCP(=O)(O)O)c2n1 [Example 8, [2-(2-Amino-6-cyclopropoxy-purin-9-yl)-ethoxymethyl]-phosphonic acid]

SMILES | GI50
CCCCOC(=O)[C@H](C)NP(=O)(COCCn1cnc2c(OC3CC3)nc(N)nc21)Oc1ccccc1 (stereo partly drawn) [Example 58] | 1 nM

Tested on: HCT-116
Experiment: Cytostatic cell culture assay (GI50), SRB
Assay type: cell-based
Conditions: Homo sapiens, HCT-116, 120 h; 5 days incubation
Excerpt: as §1, §2, §3, §4

GI50 | SMILES
2520 nM | CCOC(=O)[C@H](C)NP(=O)(COCCn1cnc2c(OCCOC)nc(N)nc21)N[C@@H](C)C(=O)OCC [Example 48]
5 nM | CCCOc1nc(N)nc2c1ncn2CCOCP(=O)(N[C@@H](Cc1ccccc1)C(=O)OCC(C)C)N[C@@H](Cc1ccccc1)C(=O)OCC(C)C [Example 19]
3590 nM | CCOc1nc(N)nc2c1ncn2CCOCP(=O)(O)O [Example 5, [2-(2-Amino-6-ethoxy-purin-9-yl)-ethoxymethyl]-phosphonic acid]
22000 nM | COC(=O)[C@@H](C)NP(=O)(COCCn1cnc2c(OC)nc(N)nc21)N[C@H](C)C(=O)OC [Example 32]
5400 nM | Nc1nc(OC2CC2)c2ncn(CCOCP(=O)(O)O)c2n1 [Example 8, [2-(2-Amino-6-cyclopropoxy-purin-9-yl)-ethoxymethyl]-phosphonic acid]

SMILES | GI50
CCCCOC(=O)[C@H](C)NP(=O)(COCCn1cnc2c(OC3CC3)nc(N)nc21)Oc1ccccc1 (stereo partly drawn) [Example 58] | 114 nM

Tested on: HCT-15
Experiment: Cytostatic cell culture assay (GI50), SRB
Assay type: cell-based
Conditions: Homo sapiens, HCT-15, 120 h; 5 days incubation
Excerpt: as §1, §2, §3, §4

GI50 | SMILES
> 10000 nM | CCOC(=O)[C@H](C)NP(=O)(COCCn1cnc2c(OCCOC)nc(N)nc21)N[C@@H](C)C(=O)OCC [Example 48]
467 nM | CCCOc1nc(N)nc2c1ncn2CCOCP(=O)(N[C@@H](Cc1ccccc1)C(=O)OCC(C)C)N[C@@H](Cc1ccccc1)C(=O)OCC(C)C [Example 19]
2440 nM | CCOc1nc(N)nc2c1ncn2CCOCP(=O)(O)O [Example 5, [2-(2-Amino-6-ethoxy-purin-9-yl)-ethoxymethyl]-phosphonic acid]
> 10000 nM | COC(=O)[C@@H](C)NP(=O)(COCCn1cnc2c(OC)nc(N)nc21)N[C@H](C)C(=O)OC [Example 32]
4140 nM | Nc1nc(OC2CC2)c2ncn(CCOCP(=O)(O)O)c2n1 [Example 8, [2-(2-Amino-6-cyclopropoxy-purin-9-yl)-ethoxymethyl]-phosphonic acid]

SMILES | GI50
CCCCOC(=O)[C@H](C)NP(=O)(COCCn1cnc2c(OC3CC3)nc(N)nc21)Oc1ccccc1 (stereo partly drawn) [Example 58] | 1030 nM

Tested on: Hs-578
Experiment: Cytostatic cell culture assay (GI50), SRB
Assay type: cell-based
Conditions: Hs578, 120 h; 5 days incubation
Excerpt: as §1, §2, §3, §4

SMILES | GI50
CCOC(=O)[C@H](C)NP(=O)(COCCn1cnc2c(OCCOC)nc(N)nc21)N[C@@H](C)C(=O)OCC [Example 48] | 976 nM
CCCCOC(=O)[C@H](C)NP(=O)(COCCn1cnc2c(OC3CC3)nc(N)nc21)Oc1ccccc1 (stereo partly drawn) [Example 58] | 42 nM
CCCOc1nc(N)nc2c1ncn2CCOCP(=O)(N[C@@H](Cc1ccccc1)C(=O)OCC(C)C)N[C@@H](Cc1ccccc1)C(=O)OCC(C)C [Example 19] | 5 nM
CCOc1nc(N)nc2c1ncn2CCOCP(=O)(O)O [Example 5, [2-(2-Amino-6-ethoxy-purin-9-yl)-ethoxymethyl]-phosphonic acid] | 2590 nM
COC(=O)[C@@H](C)NP(=O)(COCCn1cnc2c(OC)nc(N)nc21)N[C@H](C)C(=O)OC [Example 32] | 6600 nM
Nc1nc(OC2CC2)c2ncn(CCOCP(=O)(O)O)c2n1 [Example 8, [2-(2-Amino-6-cyclopropoxy-purin-9-yl)-ethoxymethyl]-phosphonic acid] | 3340 nM

Tested on: NCI-H23
Experiment: Cytostatic cell culture assay (GI50), SRB
Assay type: cell-based
Conditions: Homo sapiens, NCI-H23, 120 h; 5 days incubation
Excerpt: as §1, §2, §3, §4

GI50 | SMILES
61 nM | CCOC(=O)[C@H](C)NP(=O)(COCCn1cnc2c(OCCOC)nc(N)nc21)N[C@@H](C)C(=O)OCC [Example 48]
1 nM | CCCOc1nc(N)nc2c1ncn2CCOCP(=O)(N[C@@H](Cc1ccccc1)C(=O)OCC(C)C)N[C@@H](Cc1ccccc1)C(=O)OCC(C)C [Example 19]
639 nM | CCOc1nc(N)nc2c1ncn2CCOCP(=O)(O)O [Example 5, [2-(2-Amino-6-ethoxy-purin-9-yl)-ethoxymethyl]-phosphonic acid]
2620 nM | COC(=O)[C@@H](C)NP(=O)(COCCn1cnc2c(OC)nc(N)nc21)N[C@H](C)C(=O)OC [Example 32]
675 nM | Nc1nc(OC2CC2)c2ncn(CCOCP(=O)(O)O)c2n1 [Example 8, [2-(2-Amino-6-cyclopropoxy-purin-9-yl)-ethoxymethyl]-phosphonic acid]

SMILES | GI50
CCCCOC(=O)[C@H](C)NP(=O)(COCCn1cnc2c(OC3CC3)nc(N)nc21)Oc1ccccc1 (stereo partly drawn) [Example 58] | 3 nM

Tested on: PC3
Experiment: Cytostatic cell culture assay (GI50), SRB
Assay type: cell-based
Conditions: Homo sapiens, PC-3, 120 h; 5 days incubation
Excerpt: as §1, §2, §3, §4

GI50 | SMILES
372 nM | CCOC(=O)[C@H](C)NP(=O)(COCCn1cnc2c(OCCOC)nc(N)nc21)N[C@@H](C)C(=O)OCC [Example 48]
10 nM | CCCOc1nc(N)nc2c1ncn2CCOCP(=O)(N[C@@H](Cc1ccccc1)C(=O)OCC(C)C)N[C@@H](Cc1ccccc1)C(=O)OCC(C)C [Example 19]
2480 nM | CCOc1nc(N)nc2c1ncn2CCOCP(=O)(O)O [Example 5, [2-(2-Amino-6-ethoxy-purin-9-yl)-ethoxymethyl]-phosphonic acid]
8000 nM | COC(=O)[C@@H](C)NP(=O)(COCCn1cnc2c(OC)nc(N)nc21)N[C@H](C)C(=O)OC [Example 32]
2830 nM | Nc1nc(OC2CC2)c2ncn(CCOCP(=O)(O)O)c2n1 [Example 8, [2-(2-Amino-6-cyclopropoxy-purin-9-yl)-ethoxymethyl]-phosphonic acid]

SMILES | GI50
CCCCOC(=O)[C@H](C)NP(=O)(COCCn1cnc2c(OC3CC3)nc(N)nc21)Oc1ccccc1 (stereo partly drawn) [Example 58] | 60 nM

From patent US8163718B2, “Nucleoside analogues containing phosphonate or phosphonamide groups” (Gilead Sciences, Inc., priority 2008, dated 2012)
